The NIST ThermoML archive (doi:10.1016/j.fluid.2019.05.015)

Experiment: refractive index (Na D-line) (dimensionless); xn = mol fraction of the nth substance listed
Details: 100 kPa, Liquid, Standard Abbe refractometry

O=C1OCCO1 [ethylene carbonate] + CCn1cc[n+](C)c1.[Br-]
refractive index
Details | x1 = 0.106 | x1 = 0.222 | x1 = 0.2945 | x1 = 0.3671 | x1 = 0.4655 | x1 = 0.6002 | x1 = 0.7142 | x1 = 0.7981 | x1 = 0.8946
298.2 K | 1.5505 | 1.5405 | 1.531 | 1.5245 | 1.5105 | 1.498 | 1.4835 | 1.4695 | 1.45
308.2 K | 1.548 | 1.5385 | 1.529 | 1.5235 | 1.5085 | 1.4955 | 1.481 | 1.466 | 1.445
318.2 K | 1.5455 | 1.5345 | 1.5275 | 1.52 | 1.5065 | 1.493 | 1.4775 | 1.4635 | 1.4425

O=C1OCCO1 [ethylene carbonate] + O
Details | refractive index
298.2 K, x2 = 0.0993 | 1.4205
298.2 K, x2 = 0.1962 | 1.4175
298.2 K, x2 = 0.2943 | 1.414
298.2 K, x2 = 0.3321 | 1.4125
298.2 K, x2 = 0.4172 | 1.4085
298.2 K, x2 = 0.4758 | 1.4055
298.2 K, x2 = 0.5337 | 1.401
298.2 K, x2 = 0.5766 | 1.399
298.2 K, x2 = 0.6159 | 1.397
298.2 K, x2 = 0.6887 | 1.391
298.2 K, x2 = 0.7258 | 1.386
298.2 K, x2 = 0.7789 | 1.3805
298.2 K, x2 = 0.8239 | 1.375
298.2 K, x2 = 0.881 | 1.364
298.2 K, x2 = 0.9186 | 1.356
298.2 K, x2 = 0.9593 | 1.345
298.2 K, x2 = 0.9778 | 1.34
308.2 K, x2 = 0.0993 | 1.417
308.2 K, x2 = 0.1962 | 1.4145
308.2 K, x2 = 0.2943 | 1.411
308.2 K, x2 = 0.3321 | 1.409
308.2 K, x2 = 0.4172 | 1.4055
308.2 K, x2 = 0.4739 | 1.4015
308.2 K, x2 = 0.5337 | 1.3985
308.2 K, x2 = 0.5753 | 1.3955
308.2 K, x2 = 0.6159 | 1.3925
308.2 K, x2 = 0.688 | 1.3875
308.2 K, x2 = 0.725 | 1.381
308.2 K, x2 = 0.7785 | 1.3765
308.2 K, x2 = 0.8234 | 1.3705
308.2 K, x2 = 0.8807 | 1.361
308.2 K, x2 = 0.9183 | 1.354
308.2 K, x2 = 0.9591 | 1.3435
308.2 K, x2 = 0.9777 | 1.3385
318.2 K, x2 = 0.0993 | 1.414
318.2 K, x2 = 0.1962 | 1.4105
318.2 K, x2 = 0.2943 | 1.4075
318.2 K, x2 = 0.3321 | 1.406
318.2 K, x2 = 0.4172 | 1.4015
318.2 K, x2 = 0.473 | 1.3985
318.2 K, x2 = 0.5315 | 1.395
318.2 K, x2 = 0.5744 | 1.3925
318.2 K, x2 = 0.6147 | 1.3895
318.2 K, x2 = 0.6871 | 1.384
318.2 K, x2 = 0.7243 | 1.3785
318.2 K, x2 = 0.7779 | 1.374
318.2 K, x2 = 0.8228 | 1.368
318.2 K, x2 = 0.8803 | 1.3585
318.2 K, x2 = 0.9181 | 1.3505
318.2 K, x2 = 0.959 | 1.3425
318.2 K, x2 = 0.9777 | 1.337
